How the values were obtained:
[1] = biological target: T1, Human COX-1 (Homo sapiens, UniProt P23219); assay: COX-1 enzyme activity in human whole blood (A23187-stimulated, thromboxane B2 EIA); assay type: cell-based; details: 100 μM test compound
T1 construct: Human blood (≈50 mL) from male or female donors who had not received any aspirin or NSAIDs for 14 days was collected; endogenous in cells; host or cells: human whole blood from donors, heparinised, stimulated with calcium ionophore A23187
T1 sequence (P23219 24-599): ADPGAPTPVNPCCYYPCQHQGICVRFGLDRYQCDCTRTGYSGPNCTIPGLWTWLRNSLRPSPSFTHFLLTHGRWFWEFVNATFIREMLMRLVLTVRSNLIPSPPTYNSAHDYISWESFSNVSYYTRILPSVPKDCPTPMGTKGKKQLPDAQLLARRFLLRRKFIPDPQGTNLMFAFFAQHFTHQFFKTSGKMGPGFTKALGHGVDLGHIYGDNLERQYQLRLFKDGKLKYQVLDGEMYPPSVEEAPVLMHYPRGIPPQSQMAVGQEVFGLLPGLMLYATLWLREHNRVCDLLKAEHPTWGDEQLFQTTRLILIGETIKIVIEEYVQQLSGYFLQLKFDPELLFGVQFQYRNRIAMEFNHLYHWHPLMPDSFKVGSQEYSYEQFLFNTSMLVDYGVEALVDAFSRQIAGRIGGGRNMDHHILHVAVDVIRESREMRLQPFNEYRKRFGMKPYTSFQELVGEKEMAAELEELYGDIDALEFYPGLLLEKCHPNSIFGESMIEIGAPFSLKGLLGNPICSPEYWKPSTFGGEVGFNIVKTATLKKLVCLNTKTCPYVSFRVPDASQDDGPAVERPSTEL
Method: (§1) The assay for COX-1 and COX-2 enzyme activity, in the human whole blood was performed as described in Brideau et al., Inflamm Res., 45: 68-74 (1996)). Human blood (≈50 mL) from male or female donors who had not received any aspirin or NSAIDs for 14 days was collected at two local area blood donor centers and placed in polypropylene syringes containing sodium heparin (20 units per mL blood, final concentration). The blood was transported to the laboratory on ice packs and used within 1.5 hours of collection. Upon receipt in the laboratory, the blood was allowed to come to room temperature for 15 minutes prior to distribution in 1 mL aliquots per well of 24 well tissue culture plates. The plates were then placed on a gently rotating platform shaker in a 5% CO2 incubator at 37° C. for 15 minutes. Test compounds were dissolved in DMSO, at 1000 fold the final desired concentration, and further diluted, as indicated, in DMSO. One μL of each dilution of the test compound was added per well, in duplicate wells; wells not receiving test compound (e.g., basal, background or control wells) received 1 μL DMSO.
(§2) To induce COX-2, lipopolysaccharide (LPS) from E. coli (LPS, serotype 026:B6 or serotype 0127:B8, Sigma Chemical Co., St. Louis, Mo., Catalogue No. L3755 or L3129, respectively) was added at 10 μg/mL (2 μL of 5 mg/mL LPS in DMSO) to appropriate wells 15 minutes after the addition of the test compound. (Basal or background wells not incubated with LPS received 2 μL of DMSO.) For the stimulation of COX-1, the calcium ionophore, A23187 (free acid from Sigma Chemical Co., St. Louis, Mo., Catalogue No. C7522) was added at 25 μM (1 μL of 25 mM stock in DMSO) to separate wells 4.5 hours after the addition of the test compound. (Again, basal, background or control wells not stimulated with A23187 received 1 μL of DMSO.) At 5 hours after the addition of the test compound, all incubations were terminated by placement on ice and the addition of 2 mM EGTA (100 μL of 20 mM EGTA, tetrasodium, in PBS (phosphate buffered saline) without Ca^++ and Mg^++, pH 7.2)). The resulting solutions, were transferred by polyethylene transfer pipettes to 15 mL polypropylene centrifuge tubes and centrifuged at 1200 g for 10 minutes at 4° C. One hundred μL of plasma was removed from each blood sample and added to 1 mL of methanol in new 15 mL polypropylene centrifuge tubes, vortexed, and stored overnight at −20° C. The next day, the samples were centrifuged at 2000 g for 10 minutes at 4° C. and the supernatants transferred to glass tubes and evaporated to dryness. The samples were assayed for thromboxane B2 using EIA kits supplied by Cayman Chemical Co. (Ann Arbor, Mich., Catalogue No. 519031) in duplicate wells after reconstitution with EIA Buffer and appropriate dilution (2000 fold for COX-1 and 500 fold for Cox-2 samples).
The % inhibition for COX-1 and COX-2 enzyme activity in human whole blood by the test compounds, at the indicated concentrations, are given in Table 1.

[2] = tested on: Rat Carrageenan Air-Pouch; assay: Rat carrageenan air-pouch; assay type: in vivo; details: 45 μmol/kg by oral intubation 1 hour prior to carrageenan
Method: The carrageenan air pouch model was performed as described by Sedgwick, A. D., et al., Agents Actions 18, 429-438, (1986) and Masferrer et al., Proc. Natl. Acad. Sci. 91, 3228-3232 (1994). Air pouches were produced by subcutaneous injection of 20 ml of sterile air on day (−6) into the intrascapular area of the back of the anesthesia rat (male CD, Charles River, 175-200 g). An additional 10 mL of sterile air was injected into the pouch 3 days later to keep the space open and to assist in the development of the interior membrane. Six days after the initial air injection, 1 mL of a 1% solution of carrageenan (Sigma, lambda fraction) dissolved in pyrogen-free saline was injected directly into the pouch to produce an inflammatory response. The test compound in vehicle (3 mL/rat, 0.5% Methocel) was administered by oral intubation 1 hour prior to carrageenan injection into the inflammatory pouch. After 4 hours the exudate was removed by pipette into a calibrated centrifuge tube and the volume measured. The number of leukocytes in the exudate was determined by cell counting with a Beckman Coulter Particle Counter with the lower threshold set to exclude red blood cells. The exudate samples were assayed without further processing for PGE2 (prostaglandin E2) using PGE2 EIA kit-Monoclonal, friom Cayman Chemical Co. (Ann Arbor, Mich., Catalogue No. 514010). […]

[3] = biological target: T2, Human COX-2 (Homo sapiens, UniProt P35354); assay: COX-2 enzyme activity in human whole blood (LPS-induced, thromboxane B2 EIA); assay type: cell-based; details: for inhibition at 1 µM: 1 μM test compound; for inhibition at 10 µM: 10 μM test compound
T2 construct: Human blood (≈50 mL) from male or female donors who had not received any aspirin or NSAIDs for 14 days was collected; endogenous in cells; host or cells: human whole blood from donors, heparinised, COX-2 induced with E. coli LPS
T2 sequence (P35354 18-604): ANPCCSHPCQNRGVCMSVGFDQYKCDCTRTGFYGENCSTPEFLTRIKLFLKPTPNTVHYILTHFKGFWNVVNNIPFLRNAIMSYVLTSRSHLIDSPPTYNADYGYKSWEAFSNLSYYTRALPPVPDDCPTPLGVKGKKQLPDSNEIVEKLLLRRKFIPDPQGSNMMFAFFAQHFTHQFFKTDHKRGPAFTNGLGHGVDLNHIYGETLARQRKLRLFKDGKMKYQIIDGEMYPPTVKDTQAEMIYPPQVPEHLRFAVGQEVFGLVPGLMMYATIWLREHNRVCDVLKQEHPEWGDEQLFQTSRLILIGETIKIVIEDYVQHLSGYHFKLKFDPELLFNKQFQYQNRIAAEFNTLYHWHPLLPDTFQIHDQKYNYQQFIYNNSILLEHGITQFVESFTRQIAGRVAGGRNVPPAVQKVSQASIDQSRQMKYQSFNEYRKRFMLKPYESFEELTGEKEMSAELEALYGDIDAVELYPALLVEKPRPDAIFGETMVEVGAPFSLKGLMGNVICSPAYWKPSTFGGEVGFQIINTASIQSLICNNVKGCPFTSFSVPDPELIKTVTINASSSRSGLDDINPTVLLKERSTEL
Method: as §1, with “Human” for “The assay for COX-1 and COX-2 enzyme activity, in the human whole blood was performed as described in Brideau et al., Inflamm Res., 45: 68-74 (1996)). Human”
as §2, with “(Basal” for “To induce COX-2, lipopolysaccharide (LPS) from E. coli (LPS, serotype 026:B6 or serotype 0127:B8, Sigma Chemical Co., St. Louis, Mo., Catalogue No. L3755 or L3129, respectively) was added at 10 μg/mL (2 μL of 5 mg/mL LPS in DMSO) to appropriate wells 15 minutes after the addition of the test compound. (Basal”, “dryness.” for “dryness. The samples were assayed for thromboxane B2 using EIA kits supplied by Cayman Chemical Co. (Ann Arbor, Mich., Catalogue No. 519031) in duplicate wells after reconstitution with EIA Buffer and appropriate dilution (2000 fold for COX-1 and 500 fold for Cox-2 samples).”

inhibition at 100 µM [1] [%]	inhibition at 1 µM [3] [%]	inhibition at 10 µM [3] [%]	melting point [°C]	SMILES	PGE-2 (% Inhibition at @ 45 μmol/kg) ([2]; exudate PGE2 after 4 hours) [%]	Cell Infiltration (% inhibition @ 45 μmol/kg) ([2]; exudate leukocytes after 4 hours) [%]
70	20	75		CS(=O)(=O)c1ccc(-c2cc(COCCO[N+](=O)[O-])nn2CC2CCCCC2)cc1 [Example 2f, 4-(1-(Cyclohexylmethyl)-3-((2-(nitrooxy)ethoxy)methyl)pyrazol-5-yl)-1-(methylsulfonyl)benzene]	85	42
25	10	20	125 to 132	CCOC(=O)c1cccc(C(=O)c2cccnc2-c2ccc(S(C)(=O)=O)cc2)c1 [Example 12b, Ethyl 3-((2-(4-(methylsulfonyl)phenyl)-3-pyridyl)carbonyl)benzoate]		

— patent US7244753B2, “Cyclooxygenase-2 selective inhibitors, compositions and methods of use” (NitroMed, Inc., priority 2002, dated 2007)
